# Data from the supplement of paper PMC10307832.
# Assays:
# Assay in all cases: relative viability (nuclei count vs DMSO), 5 days (fraction); higher = more cells survive
# Linifanib = compound: Cc1ccc(F)c(NC(=O)Nc2ccc(-c3cccc4[nH]nc(N)c34)cc2)c1 [Linifanib]
# Method in brief: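 Acceptance criteria were a control CV below 25% and at least one doubling per plate. Lung cancer cell lines in 1536-well plates got five library-drug doses (not always all listed) √10 apart by pinning and were left 5 days with no medium change. Viability divides treated-well nuclei by vehicle-well nuclei and is the median across plates. Nuclei were counted by MetaXpress from 4× Hoechst images.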
# Linifanib + Crizotinib = compound: Cc1ccc(F)c(NC(=O)Nc2ccc(-c3cccc4[nH]nc(N)c34)cc2)c1 [Linifanib] + C[C@@H](Oc1cc(-c2cnn(C3CCNCC3)c2)cnc1N)c1c(Cl)ccc(F)c1Cl [Crizotinib] (partner 1 µM)
# Method in brief: (§1)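 Nuclei were stained with Hoechst during a one-step fixation (final 0.05% Triton X-100, 1% formaldehyde, 1 ug/ml Hoechst) carried out 5 days after dosing, then counted on 4× images. The cells, lung cancer lines in 1536-well plates, had been dosed by pin tool the day after seeding with one drug alone or a fixed anchor-drug dose plus five library-drug doses (not always all listed) in √10 steps. Relative viability is the nuclei count in treated wells divided by that in vehicle wells, and each value is the median of duplicate plates.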
# Linifanib + Alpelisib = compound: Cc1ccc(F)c(NC(=O)Nc2ccc(-c3cccc4[nH]nc(N)c34)cc2)c1 [Linifanib] + Cc1nc(NC(=O)N2CCC[C@H]2C(N)=O)sc1-c1ccnc(C(C)(C)C(F)(F)F)c1 [Alpelisib] (partner 2 µM)
# Method in brief: as §1
# Linifanib + Phenformin = compound: Cc1ccc(F)c(NC(=O)Nc2ccc(-c3cccc4[nH]nc(N)c34)cc2)c1 [Linifanib] + N=C(N)NC(=N)NCCc1ccccc1 [Phenformin] (partner 250 µM)
# Method in brief: as §1
# Linifanib + AZD7762 = compound: Cc1ccc(F)c(NC(=O)Nc2ccc(-c3cccc4[nH]nc(N)c34)cc2)c1 [Linifanib] + NC(=O)Nc1cc(-c2cccc(F)c2)sc1C(=O)N[C@H]1CCCNC1 [AZD7762] (partner 0.2 µM)
# Method in brief: as §1
# Linifanib + Olaparib = compound: Cc1ccc(F)c(NC(=O)Nc2ccc(-c3cccc4[nH]nc(N)c34)cc2)c1 [Linifanib] + O=C(c1cc(Cc2n[nH]c(=O)c3ccccc23)ccc1F)N1CCN(C(=O)C2CC2)CC1 [Olaparib] (partner 8 µM)
# Method in brief: as §1
Cell Line,relative viability (Linifanib; 0.03162 µM),relative viability (Linifanib; 0.1 µM),relative viability (Linifanib; 0.3162 µM),relative viability (Linifanib + Crizotinib; first compound 0.03162 µM),relative viability (Linifanib + Crizotinib; first compound 0.1 µM),relative viability (Linifanib + Crizotinib; first compound 0.3162 µM),relative viability (Linifanib + Alpelisib; first compound 0.03162 µM),relative viability (Linifanib + Alpelisib; first compound 0.1 µM),relative viability (Linifanib + Alpelisib; first compound 0.3162 µM),relative viability (Linifanib + Phenformin; first compound 0.03162 µM),relative viability (Linifanib + Phenformin; first compound 0.1 µM),relative viability (Linifanib + Phenformin; first compound 0.3162 µM),relative viability (Linifanib + AZD7762; first compound 0.03162 µM),relative viability (Linifanib + AZD7762; first compound 0.1 µM),relative viability (Linifanib + AZD7762; first compound 0.3162 µM),relative viability (Linifanib + Olaparib; first compound 0.03162 µM),relative viability (Linifanib + Olaparib; first compound 0.1 µM),relative viability (Linifanib + Olaparib; first compound 0.3162 µM)
LOU-NH91,0.979,1.07,0.951,0.74,0.767,0.769,0.686,0.771,0.704,0.734,0.806,0.732,0.752,0.816,0.739,0.909,0.956,0.869
LU99A,1.02,1.03,0.853,0.61,0.57,0.558,0.574,0.618,0.539,0.878,0.892,0.793,0.378,0.433,0.356,0.289,0.25,0.287
LXF-289,1.04,1.04,0.84,0.887,0.855,0.742,1.11,1.04,1.02,0.558,0.536,0.496,1.11,1.15,0.934,1.13,1.2,0.898
NCI-H23,0.98,1.06,0.811,0.555,0.463,0.506,0.563,0.807,0.76,0.773,0.838,0.749,0.259,0.287,0.31,0.358,0.347,0.186
NCI-H322M,1,0.939,0.956,0.954,0.982,0.828,0.81,0.823,0.754,0.756,0.819,0.737,0.594,0.581,0.552,0.832,0.809,0.796
NCI-H358,0.896,1.16,0.924,0.502,0.762,0.51,0.897,0.879,0.795,0.375,0.385,0.322,0.667,0.495,0.574,0.521,0.771,0.55
NCI-H441,1.1,1.27,0.974,0.715,0.855,0.713,0.649,1.05,0.735,0.854,0.93,0.899,1.03,1.23,0.958,0.673,0.5,0.433
NCI-H460,0.984,1.03,0.92,0.95,1.16,0.909,0.432,0.602,0.469,0.546,0.542,0.489,0.614,0.555,0.562,0.539,0.464,0.471
NCI-H596,0.94,1.03,0.884,0.913,0.902,1.05,0.544,0.517,0.431,0.707,0.734,0.899,1.16,1.28,1.15,0.633,0.615,0.724
NCI-H647,1.05,1.05,0.945,0.963,1.12,0.857,1.07,1.21,0.963,0.654,0.441,0.522,0.435,0.557,0.389,0.678,0.68,0.54
NCI-H650,1.1,1.11,0.972,0.742,0.665,0.73,1.09,1.04,1.14,0.45,0.449,0.439,0.947,0.99,0.675,0.348,0.397,0.361
NCI-H727,0.899,1.02,0.855,1.01,1.01,0.725,0.613,0.6,0.483,0.609,0.574,0.609,0.602,0.62,0.358,0.938,0.744,0.784
NCI-H838,0.96,1.06,0.936,0.847,0.839,0.841,0.903,1.07,0.932,0.79,0.642,0.542,0.907,0.952,0.953,0.753,0.783,0.71
NCI-H1355,1.03,1.07,0.99,1.04,1.02,1.14,0.81,0.823,0.794,0.449,0.496,0.425,0.648,0.765,0.792,0.768,0.832,0.726
NCI-H1437,1.07,1.01,0.978,1.05,0.849,0.888,1.02,0.999,0.868,0.32,0.296,0.276,1.01,1.22,1.13,0.631,0.653,0.603
NCI-H1651,1.07,1.09,0.978,0.834,0.929,0.831,0.883,0.838,0.996,0.314,0.368,0.309,0.428,0.483,0.544,0.181,0.202,0.195
NCI-H1666,0.986,1.03,0.939,0.971,0.989,0.966,0.951,1.15,1.1,0.577,0.559,0.548,0.941,0.854,0.833,0.809,0.716,0.766

Cell Line,relative viability (Linifanib; 0.03162 µM),relative viability (Linifanib; 0.1 µM),relative viability (Linifanib; 0.3162 µM),relative viability (Linifanib + Crizotinib; first compound 0.03162 µM),relative viability (Linifanib + Crizotinib; first compound 0.1 µM),relative viability (Linifanib + Crizotinib; first compound 0.3162 µM),relative viability (Linifanib + Alpelisib; first compound 0.03162 µM),relative viability (Linifanib + Alpelisib; first compound 0.1 µM),relative viability (Linifanib + Alpelisib; first compound 0.3162 µM),relative viability (Linifanib + Phenformin; first compound 0.03162 µM),relative viability (Linifanib + Phenformin; first compound 0.1 µM),relative viability (Linifanib + Phenformin; first compound 0.3162 µM),relative viability (Linifanib + AZD7762; first compound 0.03162 µM),relative viability (Linifanib + AZD7762; first compound 0.1 µM),relative viability (Linifanib + AZD7762; first compound 0.3162 µM),relative viability (Linifanib + Olaparib; first compound 0.03162 µM),relative viability (Linifanib + Olaparib; first compound 0.1 µM),relative viability (Linifanib + Olaparib; first compound 0.3162 µM)
NCI-H1734,1.04,1.06,0.942,0.768,0.834,0.735,0.748,0.773,0.679,0.384,0.454,0.366,0.564,0.591,0.538,0.591,0.68,0.597
NCI-H1755,1.03,1.06,0.987,0.888,0.957,0.841,0.966,0.963,0.833,0.666,0.621,0.571,0.457,0.505,0.495,0.875,0.903,0.835
NCI-H1792,0.935,0.944,0.928,0.941,1.06,0.984,0.631,0.738,0.776,0.517,0.519,0.337,0.789,0.757,0.588,0.337,0.532,0.375
NCI-H1915,1.03,1.02,0.934,0.9,0.923,0.838,1.08,1.08,1.06,0.368,0.378,0.352,0.743,0.701,0.681,0.264,0.26,0.255
NCI-H1944,0.931,1.08,0.963,1.1,1.12,0.997,0.846,0.848,0.695,0.212,0.205,0.2,0.43,0.65,0.479,0.42,0.434,0.367
NCI-H1975,0.987,1.03,0.938,1,1.02,0.984,0.631,0.715,0.65,0.418,0.433,0.406,0.688,0.706,0.618,0.797,0.881,0.796
NCI-H1993,0.89,1.2,0.946,1.01,0.932,0.867,0.628,0.711,0.646,0.44,0.514,0.504,0.974,0.894,0.831,1.03,1.13,0.963
NCI-H2085,1.02,1.06,1.01,0.863,1.03,0.818,0.923,1.13,0.916,0.878,0.786,0.712,1.08,0.943,0.974,0.727,0.803,0.739
NCI-H2087,1.05,1.19,0.964,0.602,1.03,0.655,1.28,1.17,1.03,0.431,0.51,0.431,1.33,1.45,1.32,0.618,0.764,0.598
NCI-H2126,1.02,1.01,0.972,1.03,1.04,0.975,0.791,0.793,0.765,0.557,0.535,0.542,1.02,1.06,0.983,0.986,0.912,0.9
NCI-H2170,0.989,1.01,0.928,1.33,1.35,1.11,0.787,0.875,0.776,0.426,0.411,0.378,0.831,0.954,0.843,0.612,0.701,0.566
NCI-H2347,1.08,1.22,1,0.727,0.7,0.812,1.07,1.05,1.08,0.517,0.864,0.298,0.822,0.803,0.653,0.629,0.646,0.565
NCI-H2405,1.08,1.04,0.966,0.855,0.86,0.85,0.801,0.847,0.701,0.396,0.4,0.382,0.71,0.777,0.803,0.94,0.835,0.828
NCI-H3122,1.02,1.02,0.975,0.281,0.263,0.261,0.761,0.783,0.786,0.381,0.399,0.362,1.01,1.04,0.977,0.641,0.637,0.61
PC-3 [JPC-3],1.06,1.03,0.939,1,1.01,0.986,1.05,1.02,1.04,0.491,0.474,0.442,0.796,0.856,0.776,1.09,1.14,1.13
PC-14,0.999,1,0.904,0.919,1,0.793,0.907,0.958,0.88,0.557,0.59,0.491,0.377,0.491,0.262,0.353,0.231,0.256
